In BindingDB's records for doi:10.1021/jm020429w (Rensselaer Polytechnic Institute, 2003):

Assay: Binding affinity towards Opioid receptor delta 1 from guinea pig brain using [3H]naltrindole as radioligand

| Compound | Ki [nM] |
| --- | --- |
| C[C@H]1C2Cc3ccc(Nc4ccc(N(C)C)cc4)cc3[C@@]1(C)CCN2CC1CC1 [N-(3-Cyclopropylmethyl-6,11-dimethyl-1,2,3,4,5,6-hexahydro-2,6-methano-benzo[d]azocin-8-yl)-N',N'-dimethyl-benzene-1,4-diamine] | 75 |
| C[C@H]1C2Cc3ccc(Nc4ccccn4)cc3[C@@]1(C)CCN2CC1CC1 [(3-Cyclopropylmethyl-6,11-dimethyl-1,2,3,4,5,6-hexahydro-2,6-methano-benzo[d]azocin-8-yl)-pyridin-2-yl-amine] | 11 |
| C[C@H]1C2Cc3ccc(N(C)C)cc3[C@@]1(C)CCN2CC1CC1 [((6S,11R)-3-Cyclopropylmethyl-6,11-dimethyl-1,2,3,4,5,6-hexahydro-2,6-methano-benzo[d]azocin-8-yl)-dimethyl-amine] | 810 |
| COc1ccccc1Nc1ccc2c(c1)[C@@]1(C)CCN(CC3CC3)C(C2)[C@@H]1C [(3-Cyclopropylmethyl-6,11-dimethyl-1,2,3,4,5,6-hexahydro-2,6-methano-benzo[d]azocin-8-yl)-(2-methoxy-phenyl)-amine] | 98 |
| C[C@H]1[C@H]2Cc3ccc(N)cc3[C@@]1(C)CCN2C[C@@H]1CCCO1 [6,11-Dimethyl-3-(tetrahydro-furan-2-ylmethyl)-1,2,3,4,5,6-hexahydro-2,6-methano-benzo[d]azocin-8-ylamine] | 370 |
| C[C@H]1[C@H]2Cc3ccc(O)cc3[C@@]1(C)CCN2C[C@@H]1CCCO1 | 2.5 |
| C[C@H]1C2Cc3ccc(Nc4cccnc4)cc3[C@@]1(C)CCN2CC1CC1 [(3-Cyclopropylmethyl-6,11-dimethyl-1,2,3,4,5,6-hexahydro-2,6-methano-benzo[d]azocin-8-yl)-pyridin-3-yl-amine] | 21 |
| C[C@H]1C2Cc3ccc(Nc4ccncc4)cc3[C@@]1(C)CCN2CC1CC1 [(3-Cyclopropylmethyl-6,11-dimethyl-1,2,3,4,5,6-hexahydro-2,6-methano-benzo[d]azocin-8-yl)-pyridin-4-yl-amine] | 240 |
| C[C@H]1C2Cc3ccc(Nc4ccc(C(C)(C)C)cc4)cc3[C@@]1(C)CCN2CC1CC1 [(4-tert-Butyl-phenyl)-(3-cyclopropylmethyl-6,11-dimethyl-1,2,3,4,5,6-hexahydro-2,6-methano-benzo[d]azocin-8-yl)-amine] | 61 |
| C[C@H]1[C@H]2Cc3ccc(Nc4ccccc4)cc3[C@@]1(C)CCN2C[C@@H]1CCCO1 [[6,11-Dimethyl-3-(tetrahydro-furan-2-ylmethyl)-1,2,3,4,5,6-hexahydro-2,6-methano-benzo[d]azocin-8-yl]-phenyl-amine] | 35 |
| C[C@H]1C2C(=O)c3ccc(O)cc3[C@@]1(C)CCN2CC1CC1 [3-Cyclopropylmethyl-8-hydroxy-6,11-dimethyl-3,4,5,6-tetrahydro-2H-2,6-methano-benzo[d]azocin-1-one] | 20 |
| C[C@@H]1[C@@H]2Cc3ccc(N)cc3[C@]1(C)CCN2CC1CC1 [3-Cyclopropylmethyl-6,11-dimethyl-1,2,3,4,5,6-hexahydro-2,6-methano-benzo[d]azocin-8-ylamine] | 920 |
| C[C@H]1C2Cc3ccc(Nc4ccc(Cl)cc4)cc3[C@@]1(C)CCN2CC1CC1 [(4-Chloro-phenyl)-(3-cyclopropylmethyl-6,11-dimethyl-1,2,3,4,5,6-hexahydro-2,6-methano-benzo[d]azocin-8-yl)-amine] | 26 |
| C[C@H]1C2C(=O)c3ccc(N)cc3[C@@]1(C)CCN2CC1CC1 [8-Amino-3-cyclopropylmethyl-6,11-dimethyl-3,4,5,6-tetrahydro-2H-2,6-methano-benzo[d]azocin-1-one] | 29 |
| CC[C@@]12CCN(CC3CC3)C(C(=O)c3ccc(N)cc31)[C@@H]2C [8-Amino-3-cyclopropylmethyl-6-ethyl-11-methyl-3,4,5,6-tetrahydro-2H-2,6-methano-benzo[d]azocin-1-one] | 81 |
| COc1ccc(CNc2ccc3c(c2)[C@@]2(C)CCN(CC4CC4)C(C3)[C@@H]2C)cc1 [(3-Cyclopropylmethyl-6,11-dimethyl-1,2,3,4,5,6-hexahydro-2,6-methano-benzo[d]azocin-8-yl)-(4-methoxy-benzyl)-amine] | 80 |
| C[C@H]1C2Cc3ccc(Nc4ccc(C(F)(F)F)cc4)cc3[C@@]1(C)CCN2CC1CC1 [(3-Cyclopropylmethyl-6,11-dimethyl-1,2,3,4,5,6-hexahydro-2,6-methano-benzo[d]azocin-8-yl)-(4-trifluoromethyl-phenyl)-amine] | 180 |
| CC[C@@]12CCN(CC3CC3)C(C(=O)c3ccc(Nc4ccccc4)cc31)[C@@H]2C [3-Cyclopropylmethyl-6-ethyl-11-methyl-8-phenylamino-3,4,5,6-tetrahydro-2H-2,6-methano-benzo[d]azocin-1-one] | 37 |
| C[C@H]1C2Cc3ccc(Nc4ccc(Cl)c(Cl)c4)cc3[C@@]1(C)CCN2CC1CC1 [(3-Cyclopropylmethyl-6,11-dimethyl-1,2,3,4,5,6-hexahydro-2,6-methano-benzo[d]azocin-8-yl)-(3,4-dichloro-phenyl)-amine] | 29 |
| C[C@H]1C2Cc3cc4c(cc3[C@@]1(C)CCN2CC1CC1)[nH]c1ccccc14 [17-cyclopropylmethyl-1,20-dimethyl-(1S,20R)-5,17-diazapentacyclo[14.3.1.02,14.04,12.06,11]icosa-2(14),3,6(11),7,9,12-hexaene] | 170 |
| Cc1ccc(Nc2ccc3c(c2)[C@@]2(C)CCN(CC4CC4)C(C3)[C@@H]2C)cc1 [(3-Cyclopropylmethyl-6,11-dimethyl-1,2,3,4,5,6-hexahydro-2,6-methano-benzo[d]azocin-8-yl)-p-tolyl-amine] | 6.2 |
| C[C@H]1C2Cc3ccc(N=C(c4ccccc4)c4ccccc4)cc3[C@@]1(C)CCN2CC1CC1 [Benzhydrylidene-(3-cyclopropylmethyl-6,11-dimethyl-1,2,3,4,5,6-hexahydro-2,6-methano-benzo[d]azocin-8-yl)-amine] | 220 |
| COc1ccc(Nc2ccc3c(c2)[C@@]2(C)CCN(CC4CC4)C(C3)[C@@H]2C)cc1 [(3-Cyclopropylmethyl-6,11-dimethyl-1,2,3,4,5,6-hexahydro-2,6-methano-benzo[d]azocin-8-yl)-(4-methoxy-phenyl)-amine] | 8.3 |
| COc1cccc(Nc2ccc3c(c2)[C@@]2(C)CCN(CC4CC4)C(C3)[C@@H]2C)c1 [(3-Cyclopropylmethyl-6,11-dimethyl-1,2,3,4,5,6-hexahydro-2,6-methano-benzo[d]azocin-8-yl)-(3-methoxy-phenyl)-amine] | 13 |
| C[C@H]1C2Cc3ccc(NCc4ccc(Cl)cc4)cc3[C@@]1(C)CCN2CC1CC1 [(4-Chloro-benzyl)-(3-cyclopropylmethyl-6,11-dimethyl-1,2,3,4,5,6-hexahydro-2,6-methano-benzo[d]azocin-8-yl)-amine] | 100 |
